# Values joined by “and” are separate entries in the source; they are usually repeats but may differ in a detail not shown here. Identical values can stand only once.
# Key:
# [1] = target: T1, TraR (Agrobacterium tumefaciens, UniProt P33905); assay: cell-based; conditions: for Activation (%) / Inhibition (%): A. tumefaciens-TraR; for Activation (%): Library C primary agonism screen; for Inhibition (%): Library C primary antagonism screen; for A. tumefaciens-TraR Activation [%]: 10 μM ligand; for A. tumefaciens-TraR Inhibition [%]: 10 μM synthetic ligand against 100 nM OOHL
# T1 construct: These strains lack their AHL synthase (I) genes, but retain their native R genes; endogenous in cells; host or cells: A. tumefaciens WCF47 (Δ-traI) with PtraI-lacZ plasmid pCF372
# [2] = target: T2, LasR (Pseudomonas aeruginosa, UniProt P25084); assay: cell-based; type: cell-based; conditions: for Inhibition (%): E. coli-LasR, Library C primary antagonism screen; for E. coli-LasR Inhibition [%]: 5 μM synthetic ligand against 7.5 nM OdDHL
# T2 construct: expressed in transfected cells; host or cells: E. coli DH5α (pJN105L pSC11), arabinose-induced
# How it was run: (§1)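 E. coli DH5α carrying pJN105L/pSC11 grown to OD600 0.3, LasR expression induced with arabinose (4 mg/mL), then incubated with AHLs at 37 °C to OD600 0.45. LasR activity read by β-galactosidase reporter assay; IC50/EC50 from sigmoidal dose-response fits.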
# [3] = target: T2, LasR; assay: cell-based; conditions: for Activation (%): E. coli-LasR, Library C primary agonism screen; for E. coli-LasR Activation [%]: 5 μM ligand; for EC50: read-out: LasR EC50
# How it was run: as §1
# [4] = target: T3, LuxR (Aliivibrio fischeri, UniProt P35327); assay: cell-based; type: cell-based, Vibrio fischeri; conditions: for Inhibition (%): V. fischeri-LuxR, Library C primary antagonism screen; for V. fischeri-LuxR Inhibition [%]: 5 μM synthetic ligand against 5 μM OHHL
# T3 construct: a Δ-luxI derivative of V. fischeri ES114, in which the native lux operon behaves as the bioluminescent reporter; endogenous in cells; host or cells: V. fischeri ES114 (Δ-luxI)
# How it was run: (§2)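 Whole-cell luminescence reporter in V. fischeri ES114 (WT, Δ-luxI or Δ-luxR) or E. coli, overnight cultures diluted 1:10 and grown with compound at RT (E. coli 30° C) to OD600 0.35-0.4 (4-6 h). Luminescence normalized to cell density, triplicates; EC50/IC50 from sigmoidal fit.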
# [5] = target: T3, LuxR; assay: cell-based; parameters: species or system Vibrio fischeri; conditions: for Activation (%): V. fischeri-LuxR, Library C primary agonism screen; for EC50: LuxR EC50, V. fischeri ES114 (Δ-luxI); for activation at 200 µM: read-out: V. fischeri-LuxR Activation [%], 200 μM ligand; for activation at 200 µM / V. fischeri-LuxR Activation [%]: V. fischeri ES114 (Δ-luxI), normalized to OHHL; for V. fischeri-LuxR Activation [%]: 200 μM ligand
# How it was run: as §2
# [6] = target: QscR:DNA binding (PA1897 promoter) (Pseudomonas aeruginosa, UniProt G3XD77); conditions: EMSA
# Description: We sought to obtain further insights into the mechanism of QscR modulation by non-native AHLs. […] We therefore performed electromobility shift assays (EMSA) on purified QscR and radiolabeled PA1897 promoter in the presence of selected QscR antagonists and 1.
# [7] = target: T4, LuxR (Aliivibrio fischeri, UniProt P12746); assay: LuxR luminescence antagonism and agonism assays in E. coli JM109 (pSB401); type: cell-based, Vibrio fischeri; conditions: EC50 of autoinducer in E. coli JM109 (pSB401)
# T4 construct: expressed in transfected cells; host or cells: E. coli JM109 (pSB401)
# Description: Competitive inhibition assays were performed in the presence of both OHHL and PHLs 11 (at a 1:1 ratio), while agonism assays were performed with PHLs alone.
# Luminescence assays. For agonism assays, an appropriate amount of AHL stock solution was added into a 96-well plate. […] A 200-μL portion of the diluted culture was added to each well of the plate. […] Luminescence was measured using a multilabel plate reader and normalized to cell density. […] All assays were performed in triplicate. Graphpad Prism software was used to calculate IC50 and EC50 values.
# E. coli assay procedures. […] An overnight culture of E. coli JM109 (pSB401) was diluted 1:10 with LB medium (containing 10 μg/mL tetracycline). A 200-μL portion of the diluted culture was added to each well of the plate. Plates were grown at 30° C. with shaking (200 rpm) until the OD600=0.35-0.4 (6-8 h). Luminescence then was measured and normalized to cell density per well. […] All assays were performed in triplicate.
# [8] = test system: wild-type V. fischeri ES114; assay: Luminescence dose response in wild-type V. fischeri ES114; type: cell-based, Vibrio fischeri; conditions: relative to OHHL
# Description: (§3) Vibrio fischeri assay procedures. For primary agonism assays, an appropriate amount of concentrated control or PHL (11) stock solution, to give a final concentration of 200 μM, was added to wells in a 96-well multititer plate. An overnight culture of V. fischeri ES114 (WT, Δ-luxI or Δ-luxR) was diluted 1:10 with LBS medium. A-200 μL portion of the diluted culture was added to each well of the plate. Plates were grown at RT with shaking (200 rpm) until the OD600=0.35-0.4 (4-6 h). Luminescence then was measured and normalized to cell density per well. […] Similar methods were used for dose response assays, except the concentrations of controls and PHLs 11 used were between 0.02 and 2×10^5 nM. All assays were performed in triplicate. IC50 and EC50 values were calculated using GraphPad Prism software using a sigmoidal curve fit.
# [9] = test system: V. fischeri ES114 (Δ-luxR); assay: Luminescence assay in Δ-luxR derivative of V. fischeri ES114; type: cell-based, Vibrio fischeri
# Description: as §3
# [10] = test system: Euprymna scolopes squid; assay: Preliminary experiments in squid / invertebrate model systems (tolerance, activity in vivo)
# [11] = test system: elastase B production; assay: microbe, parasite or virus in culture; type: cell-based, Pseudomonas aeruginosa; conditions: P. aeruginosa PAO1; 200 μM
# Description: Elastase B production assay in P. aeruginosa. Elastase B activity in P. aeruginosa was measured according to a previously reported method, with the following modifications. P. aeruginosa PAO1 was grown overnight in LB media at 37° C., after which it was diluted to an OD600=0.1. Portions (2 mL) of this culture was added to test tubes containing synthetic compounds to give final concentrations of 20 μM or 200 μM and incubated for 12-14 h at 37° C. with 200 rpm shaking. The OD600 was measured for each tube, after which the contents of the tubes were filtered through a […] Whatman filter to remove all cellular matter. A 100 μL-aliquot of the supernatant was added to 900 μL of an Elastin Congo Red Solution (5 mg of Elastin Congo red substrate per 1 mL of 100 mM Tris-HCl, 1 mM CaCl2 (pH 7.2)) and incubated for 12 h at 37° C. with 250 rpm shaking. The contents of these tubes were then filtered in order to remove unreacted Elastin Congo red substrate. Elastase B activity was then calculated (normalized) by dividing the absorbance of the cleaved Congo red (OD492) by the cell density (OD600 of the cells before first filtration).
# Elastase B production assay in P. aeruginosa. Elastase B activity in P. aeruginosa was measured according to a previously reported method, with the following modifications. P. aeruginosa PAO1 was grown overnight at 37° C. and then diluted 1:10 with fresh LB medium. Portions (2 mL) of this culture were added to test tubes containing synthetic compounds to give final compound concentrations of 20 μM or 200 μM. The tubes were incubated for 12-14 h at 37° C. The OD600 was measured for each tube, after which the contents of the tubes were filtered through a 0.2 μm Whatman filter to remove all cellular matter. A 100 μL aliquot of the supernatant was added to 900 μL of an elastin-Congo red solution (5 mg of elastin-Congo red substrate per 1 mL of buffer (100 mM Tris-HCl, 1 mM CaCl2, pH 7.2)) and incubated for 12 h at 37° C. with 250 rpm shaking. The contents of these tubes were then filtered in order to remove unreacted elastin-Congo red substrate, and the supernatant containing cleaved Congo red was isolated. A 200 μL aliquot of the supernatant was added to a 96-well multititer plate, and the OD492 was measured. Elastase B activity was calculated by dividing the absorbance of the cleaved Congo red solution (OD492) by the cell density (OD600 of the cells before first filtration).
# [12] = V. fischeri ES114 (Δ-luxI), normalized to OHHL
# [13] = A. tumefaciens WCF47 (pCF372), normalized to OOHL
# [14] = E. coli DH5α (pJN105L pSC11), normalized to OdDHL
# T2 sequence (P25084 whole entry): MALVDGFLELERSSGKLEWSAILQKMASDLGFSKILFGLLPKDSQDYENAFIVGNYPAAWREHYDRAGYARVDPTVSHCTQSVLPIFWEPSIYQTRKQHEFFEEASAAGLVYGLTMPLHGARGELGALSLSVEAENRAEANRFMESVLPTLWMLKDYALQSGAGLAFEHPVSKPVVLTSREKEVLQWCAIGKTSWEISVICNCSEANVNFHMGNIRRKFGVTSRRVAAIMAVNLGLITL
# T1 sequence (P33905 whole entry): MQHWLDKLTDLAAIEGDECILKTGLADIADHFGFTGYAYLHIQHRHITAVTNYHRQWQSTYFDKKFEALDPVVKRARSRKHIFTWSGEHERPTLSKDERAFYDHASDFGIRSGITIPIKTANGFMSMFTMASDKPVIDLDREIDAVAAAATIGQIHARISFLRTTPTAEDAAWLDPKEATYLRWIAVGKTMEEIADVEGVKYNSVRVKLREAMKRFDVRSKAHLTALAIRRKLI
# T3 sequence (P35327 whole entry): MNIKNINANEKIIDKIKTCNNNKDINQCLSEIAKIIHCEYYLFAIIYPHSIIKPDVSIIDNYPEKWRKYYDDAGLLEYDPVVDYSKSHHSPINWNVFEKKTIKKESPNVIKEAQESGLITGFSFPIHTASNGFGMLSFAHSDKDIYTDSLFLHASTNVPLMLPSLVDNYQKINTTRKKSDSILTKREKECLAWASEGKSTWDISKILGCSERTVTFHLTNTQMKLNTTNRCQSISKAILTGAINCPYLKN
# T4 sequence (P12746 whole entry): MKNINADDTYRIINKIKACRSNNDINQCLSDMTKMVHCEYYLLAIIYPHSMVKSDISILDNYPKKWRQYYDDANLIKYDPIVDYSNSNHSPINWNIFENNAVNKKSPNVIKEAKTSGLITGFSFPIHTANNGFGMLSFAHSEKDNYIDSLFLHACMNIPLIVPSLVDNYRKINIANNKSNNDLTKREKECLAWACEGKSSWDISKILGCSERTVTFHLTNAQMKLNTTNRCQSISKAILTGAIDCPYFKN
# QscR:DNA binding (PA1897 promoter), sequence (G3XD77 entry or part of it): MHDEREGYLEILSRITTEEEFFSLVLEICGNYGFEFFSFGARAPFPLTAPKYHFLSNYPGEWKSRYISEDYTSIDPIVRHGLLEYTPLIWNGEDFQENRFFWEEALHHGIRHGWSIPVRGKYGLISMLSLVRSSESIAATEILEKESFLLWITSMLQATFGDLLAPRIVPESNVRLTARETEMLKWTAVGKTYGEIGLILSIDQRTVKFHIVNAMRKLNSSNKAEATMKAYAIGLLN
compound,measurement,setting,value
CCOc1ccc(CC(=O)N[C@H]2CCOC2=O)cc1 [C25],Activation (%),[1],0%
same,Inhibition (%),[1],35%
same,Inhibition (%),[2],15%
same,Activation (%),[3],0%
same,Inhibition (%),[4],55%
same,Activation (%),[5],2%
same,inhibition of OdDHL-dependent QscR:DNA binding,[6],capable of inhibiting OdDHL (1)-dependent QscR:DNA binding
"CCCC(=O)CC(=O)N[C@H]1CCOC1=O [compound 3, N-(3-oxo-hexanoyl)-L-homoserine lactone, reference compound]",EC50,[5],3 µM and ~5 µM
same,EC50,[7],~10 nM and 20 nM
"O=C(Cc1cccc([N+](=O)[O-])c1)N[C@H]1CCOC1=O [11n, N-(3-nitro-phenylacetanoyl)-L-homoserine lactone]",V. fischeri-LuxR Inhibition [%],[4]; [12],no inhibitory activity
same,EC50 lower / activity higher relative to OHHL,[5]; LuxR,10 fold
same,EC50,[5],0.3 µM
same,luminescence induced higher than native ligand OHHL,"[5]; primary agonism assay, 200 μM, same concentration as OHHL",29%
same,activation at 200 µM,[5],≥ 60%
same,activity in wild-type V. fischeri,[8],similarly heightened activity
same,luminescence / activity in Δ-luxR derivative of V. fischeri ES114,[9],Neither 11n nor OHHL induced any detectable luminescence
same,activity / modulation of quorum sensing in vivo,[10],active in vivo
same,tolerance in squid / invertebrate model systems,[10],well tolerated
4-hydroxy PHL [B27],A. tumefaciens-TraR Activation [%],[1]; [13],0%
same,A. tumefaciens-TraR Inhibition [%],[1]; [13],3%
same,E. coli-LasR Inhibition [%],[2]; [14],7%
same,E. coli-LasR Activation [%],[3]; [14],0%
same,V. fischeri-LuxR Inhibition [%],[4]; [12],12%
same,V. fischeri-LuxR Activation [%],[5],2%
"O=C(CCCc1c[nH]c2ccccc12)N[C@H]1CCOC1=O [compound 9, indole AHL, reference compound]",A. tumefaciens-TraR Activation [%],[1]; [13],0%
same,elastase B production inhibition,[11],66%
O=C(CC(=O)N[C@@H]1CCOC1=O)Cc1ccccc1 [B2],A. tumefaciens-TraR Activation [%],[1]; [13],2%
same,A. tumefaciens-TraR Inhibition [%],[1]; [13],50%
same,E. coli-LasR Inhibition [%],[2]; [14],−7%
same,E. coli-LasR Activation [%],[3]; [14],84%
same,EC50,[3],540 nM
same,V. fischeri-LuxR Inhibition [%],[4]; [12],46%
same,V. fischeri-LuxR Activation [%],[5],3%
4-methyl PHL [C19],Activation (%),[1],3%
same,Inhibition (%),[1],21%
same,Inhibition (%),[2],11%
same,Activation (%),[3],0%
same,Inhibition (%),[4],58%
same,Activation (%),[5],1%
CCCCCCCCCCCS(=O)(=O)N[C@H]1CCOC1=O [A16],A. tumefaciens-TraR Activation [%],[1]; [13],0%
same,A. tumefaciens-TraR Inhibition [%],[1]; [13],29%
same,E. coli-LasR Inhibition [%],[2]; [14],21%
same,E. coli-LasR Activation [%],[3]; [14],0%
same,V. fischeri-LuxR Inhibition [%],[4]; [12],74%
same,V. fischeri-LuxR Activation [%],[5],1%
COc1ccccc1C1CCN(c2ccc(C=CC(=O)NC3CCOC3=O)cc2[N+](=O)[O-])CC1 (stereo not shown) [D18],A. tumefaciens-TraR Activation [%],[1]; [13],0%
same,A. tumefaciens-TraR Inhibition [%],[1]; [13],16%
same,E. coli-LasR Inhibition [%],[2]; [14],34%
same,E. coli-LasR Activation [%],[3]; [14],32%
same,LasR: maximum induction value achievable (value in parentheses),"[3]; at 200 μM ligand, relative to natural ligand",32%
same,EC50,[3],470 nM
same,V. fischeri-LuxR Inhibition [%],[4]; [12],19%
same,V. fischeri-LuxR Activation [%],[5],2%
COc1ccc(CC(=O)N[C@H]2CCOC2=O)cc1 [B28],A. tumefaciens-TraR Activation [%],[1]; [13],0%
same,A. tumefaciens-TraR Inhibition [%],[1]; [13],26%
same,E. coli-LasR Inhibition [%],[2]; [14],16%
same,E. coli-LasR Activation [%],[3]; [14],0%
same,V. fischeri-LuxR Inhibition [%],[4]; [12],57%
same,V. fischeri-LuxR Activation [%],[5],3%
CCCCCCC(=O)NC1CCOC1=O (stereo not shown) [compound 4],IC50,[1],690 nM
same,activation at 10 µM,[1]; read-out: A. tumefaciens-TraR Activation [%],4%
same,inhibition at 10 µM,"[1]; read-out: A. tumefaciens-TraR Inhibition [%], 10 μM synthetic ligand against 100 nM OOHL, A. tumefaciens WCF47 (pCF372), normalized to OOHL",~90%
same,inhibition at 5 µM,"[2]; read-out: E. coli-LasR Inhibition [%], 5 μM synthetic ligand against 7.5 nM OdDHL, E. coli DH5α (pJN105L pSC11), normalized to OdDHL",~25%
same,activation at 5 µM,"[3]; read-out: E. coli-LasR Activation [%], 5 μM ligand, E. coli DH5α (pJN105L pSC11), normalized to OdDHL",0%
same,IC50,"[4]; LuxR IC50, determined against 5 μM OHHL",1360 nM
same,inhibition at 5 µM,"[4]; read-out: V. fischeri-LuxR Inhibition [%], 5 μM synthetic ligand against 5 μM OHHL, V. fischeri ES114 (Δ-luxI), normalized to OHHL",~76%
same,activation at 200 µM,[5],~25%

# Source: patent US7910622B2, “Modulation of bacterial quorum sensing with synthetic ligands” (Wisconsin Alumni Research Foundation, priority 2007, dated 2011)
